Patent EP1391197B1, “Process for preparation of compositions with a high content in avarol and their use” (KliniPharm GmbH, priority 2002, dated 2004)

Biological target: T1, 5-Lipoxygenase (Homo sapiens, UniProt P09917)
T1 construct: Granulozyten freiwilliger Spender; endogenous in cells; host or cells: granulocytes of volunteer donors
T1 sequence (P09917 1-674): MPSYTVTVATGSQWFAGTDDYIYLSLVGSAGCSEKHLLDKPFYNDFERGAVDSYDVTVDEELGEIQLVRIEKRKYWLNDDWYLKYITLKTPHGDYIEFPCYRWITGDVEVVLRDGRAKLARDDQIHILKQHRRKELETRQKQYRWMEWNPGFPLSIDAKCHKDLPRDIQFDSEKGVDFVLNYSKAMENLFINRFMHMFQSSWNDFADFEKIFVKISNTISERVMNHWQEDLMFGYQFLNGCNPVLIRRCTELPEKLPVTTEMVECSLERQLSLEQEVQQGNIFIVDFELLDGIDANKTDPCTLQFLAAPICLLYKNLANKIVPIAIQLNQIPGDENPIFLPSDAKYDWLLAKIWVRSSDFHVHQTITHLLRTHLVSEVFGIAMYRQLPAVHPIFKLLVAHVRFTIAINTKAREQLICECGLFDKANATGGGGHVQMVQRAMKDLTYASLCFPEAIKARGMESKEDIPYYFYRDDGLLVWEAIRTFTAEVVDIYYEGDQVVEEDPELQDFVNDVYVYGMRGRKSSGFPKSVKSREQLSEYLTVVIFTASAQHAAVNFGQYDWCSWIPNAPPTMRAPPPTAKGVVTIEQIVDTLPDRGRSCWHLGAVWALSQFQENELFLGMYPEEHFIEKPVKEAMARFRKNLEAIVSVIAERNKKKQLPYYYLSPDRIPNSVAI
Test: 5-lipoxygenase test in granulocytes (HPLC of 5-lipoxygenase products)
Assay type: cell-based
Details: granulocytes of volunteer donors, arachidonic acid and calcium ionophore, 37°C, 10 min, pH 7,4; read-out: IC50- Wert (Bildung von Biotransformationsprodukten der 5-Lipoxygenase)
Description: Granulozyten freiwilliger Spender [5-10 x 10^6 / ml] wurden in gepufferter physiologischer Kochsalzlösung [pH 7,4] mit Arachidonsäure [40µmol] und Calciumionophor [10µmol] und steigenden Konzentrationen [10nMol bis 10µMol] der Prüfsubstanzen, Avarol bzw. einer Avarol - Zusammensetzung gemäß Beispiel 3, bei 37°C 10 Minuten lang inkubiert. Anschließend wurden die Reaktion durch Zugabe von 1ml Methanol beendet, die Proben zentrifugiert und die Konzentration an Biotransformations-Produkten der 5-Lipoxygenase im Überstand per HPLC im UV bei 280 und 235nm analysiert. Avarol und die neue Zusammensetzung mit hohem Avarolgehalt, der Dysidea avara-Nativextrakt, hemmten die Bildung von Biotransformationsprodukten der 5-Lipoxygenase. Die IC50- Werte unterschieden sich aber auffällig deutlich. Während für Avarol ein IC50- Wert von 1,3 µM ermittelt wurde, der sich mit Literaturangaben deckt, hemmte die neue Zusammensetzung die Bildung von Produkten der 5-Lipoxygenase bereits mit einem IC50- Wert von 58 nM und war damit überraschend stärker wirksam als Avarol.

## CC1=CCC[C@H]2[C@](C)(Cc3cc(O)ccc3O)[C@@H](C)CC[C@]12C [Avarol]
  IC50: 1.3 µM
